# Results as given in ChEMBL document CHEMBL1156365, “Polyacetylene carboxylic acids from Mitrephora celebica” (2001).
# Assays:
# Staphylococcus aureus = assay: Antibacterial activity against methicillin-resistant Staphylococcus aureus by NCCLS M7-A4 method; format: functional
# [1] = test system: Mycolicibacterium smegmatis; assay: Antibacterial activity against Mycobacterium smegmatis; format: functional
SMILES,MIC (Staphylococcus aureus),MIC [1]
C=CCC/C=C/C#CC#CCCCCCCCC(=O)O,25 µg/mL,12.5 µg/mL
CN[C@H](CC(C)C)C(=O)N[C@H]1C(=O)N[C@@H](CC(N)=O)C(=O)N[C@H]2C(=O)N[C@H]3C(=O)N[C@H](C(=O)N[C@H](C(=O)O)c4cc(O)cc(O)c4-c4cc3ccc4O)[C@H](O)c3ccc(c(Cl)c3)Oc3cc2cc(c3O[C@@H]2O[C@H](CO)[C@@H](O)[C@H](O)[C@H]2O[C@H]2C[C@](C)(N)[C@H](O)[C@H](C)O2)Oc2ccc(cc2Cl)[C@H]1O [VANCOMYCIN],0.8 µg/mL,
C=CCCC#CC#CC#CCCCCCCCC(=O)O [OROPHEIC ACID],12.5 µg/mL,12.5 µg/mL
NNC(=O)c1ccncc1 [ISONIAZID],,0.8 µg/mL
